This is an account of results in ChEMBL document CHEMBL1137517, “Rational design, synthesis and evaluation of (6aR( *),11bS( *))-1-(4-fluorophenyl)-4-{7-[4-(4-fluorophenyl)-4-oxobutyl]1,2,3,4,6,6a,7,11b,12,12a(RS)-decahydropyrazino[2',1':6,1]pyrido[3,4-b]indol-2-yl}-butan-1-one as a potential neuroleptic agent” (Bioorg Med Chem, 2007).

For series [1], the target named is D(1A) dopamine receptor (Rattus norvegicus, UniProt P18901). Description: Displacement of [3H]SCH-23390 from dopamine D1 receptor in rat brain. It is filed as tissue-based. (Loss of bound radioactivity is the signal in a displacement assay; it reports binding, not function.)
Series [2] concerns Rattus norvegicus. Description: Blockade of conditioned avoidance response in ip dosed rat. It is filed as functional.
In series [3] the test system is Rattus norvegicus. Description: Blockade of unconditioned avoidance response in ip dosed rat. It is filed as functional.
The target in series [4] is D(2) dopamine receptor (Rattus norvegicus, UniProt P61169). Briefly: Displacement of [3H]spiperone from dopamine D2 receptor in rat brain. It is filed as tissue-based.
Series [5] addresses 5-hydroxytryptamine receptor 2A (Rattus norvegicus, UniProt P14842). Description: Displacement of [3H]ketanserin from 5HT2A receptor in rat brain. Type of series: tissue-based.
Series [6] relates to Mus musculus. Briefly: Reduction of amphetamine-induced hyperactivity in ip dosed mouse. It is filed as functional.
Series [7] relates to Mus musculus. Briefly: Antagonism of amphetamine-induced toxicity in ip dosed mouse. It is filed as functional.
The subject of series [8] is Rattus norvegicus. Briefly: Blockade of secondary conditioned avoidance response in ip dosed rat. It is filed as functional.
Series [9] relates to Mus musculus. Description: Effect on locomotor activity in ip dosed mouse assessed as motor deficit by rota rod test. Type of series: functional.
In series [10] the test system is Rattus norvegicus. Briefly: Cataleptic activity in ip dosed rat. It is filed as ADME, organism-based. The note with it: in vivo.
For series [11], the species on record is Rattus norvegicus. Description: Ratio of ED50 for cataleptic activity in rat to ED50 for conditioned avoidance response in rat. Type of series: functional.

Sequence of D(2) dopamine receptor (P61169 whole entry): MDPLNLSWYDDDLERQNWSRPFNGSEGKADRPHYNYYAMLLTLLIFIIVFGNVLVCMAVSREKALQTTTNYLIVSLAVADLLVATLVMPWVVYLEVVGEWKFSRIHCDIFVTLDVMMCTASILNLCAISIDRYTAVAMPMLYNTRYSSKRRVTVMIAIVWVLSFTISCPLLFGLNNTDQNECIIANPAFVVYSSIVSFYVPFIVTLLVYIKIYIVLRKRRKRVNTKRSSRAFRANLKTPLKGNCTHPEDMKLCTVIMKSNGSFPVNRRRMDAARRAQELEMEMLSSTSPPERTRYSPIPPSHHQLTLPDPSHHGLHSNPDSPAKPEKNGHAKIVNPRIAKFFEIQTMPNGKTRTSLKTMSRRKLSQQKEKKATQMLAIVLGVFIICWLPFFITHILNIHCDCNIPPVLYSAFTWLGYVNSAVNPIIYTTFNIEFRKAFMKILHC
Sequence of 5-hydroxytryptamine receptor 2A (P14842 whole entry): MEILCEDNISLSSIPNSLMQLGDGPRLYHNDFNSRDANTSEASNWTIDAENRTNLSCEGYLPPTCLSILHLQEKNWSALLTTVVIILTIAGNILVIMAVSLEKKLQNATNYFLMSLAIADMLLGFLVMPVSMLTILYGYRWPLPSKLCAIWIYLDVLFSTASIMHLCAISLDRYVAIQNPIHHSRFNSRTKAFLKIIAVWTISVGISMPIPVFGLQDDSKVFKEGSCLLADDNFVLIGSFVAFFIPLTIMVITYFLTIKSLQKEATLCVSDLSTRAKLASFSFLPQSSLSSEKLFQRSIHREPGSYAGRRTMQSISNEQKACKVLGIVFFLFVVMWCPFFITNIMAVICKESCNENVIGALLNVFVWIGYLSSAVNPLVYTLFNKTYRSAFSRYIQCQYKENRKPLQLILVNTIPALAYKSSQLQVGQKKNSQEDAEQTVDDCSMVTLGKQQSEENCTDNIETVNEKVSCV
Sequence of D(1A) dopamine receptor (P18901 whole entry): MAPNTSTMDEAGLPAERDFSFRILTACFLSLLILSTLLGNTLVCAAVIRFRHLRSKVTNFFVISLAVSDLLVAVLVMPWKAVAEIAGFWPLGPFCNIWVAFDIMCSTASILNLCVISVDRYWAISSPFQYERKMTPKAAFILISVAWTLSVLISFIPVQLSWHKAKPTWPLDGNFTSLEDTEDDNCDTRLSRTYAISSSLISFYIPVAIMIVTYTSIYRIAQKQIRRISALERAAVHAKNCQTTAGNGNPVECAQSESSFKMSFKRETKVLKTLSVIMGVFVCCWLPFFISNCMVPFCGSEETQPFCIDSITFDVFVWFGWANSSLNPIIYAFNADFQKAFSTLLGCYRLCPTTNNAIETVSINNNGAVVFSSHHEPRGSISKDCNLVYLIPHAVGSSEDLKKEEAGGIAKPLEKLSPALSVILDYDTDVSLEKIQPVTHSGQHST

Broadly, the Ki is a dissociation constant, usually derived from enzyme kinetics or from competition with a known ligand. Lower therefore signals higher affinity. One may read the ED50 as the midpoint of the dose-response relation. On to `O=C(CCCN1CCN2CC3C(CC2C1)c1ccccc1N3CCCC(=O)c1ccc(F)cc1)c1ccc(F)cc1` (stereo not drawn), for which the Ki is 0.643 nM in series [1], 2250 nM in series [4] and 9.35 nM in series [5]. For the same compound, the ED50 was 0.07 mg/kg in series [2]; 5.6 mg/kg in [3]; 1.71 mg/kg in [6]; 5.75 mg/kg in series [7]; 0.01 mg/kg in series [8]; 4.33 mg/kg in [9]. Also, the ED50 in series [10] came out at 0.88 mg/kg. For the same compound, the Ratio in series [11] stood at 12.6.

Turning to `O=C(CCCN1CCN2CC3Nc4ccccc4C3CC2C1)c1ccc(F)cc1` (stereo not drawn), the Ki in [4] was 93.8 nM; in [5] it was 92.5 nM.

`O=C(CCCN1c2ccccc2C2CC3CNCCN3CC21)c1ccc(F)cc1` (mixture of isomers): the Ki in [4] and in series [5] was more than 100000 nM each time.

As to `O=C(CCCN1CCN2Cc3[nH]c4ccccc4c3CC2C1)c1ccc(F)cc1` (stereo not drawn) [BIRIPERONE], the Ki in [1] is 425 nM; in series [4], 13.2 nM; in [5], 24 nM. In addition, the ED50 was found to be 0.09 mg/kg in series [2]; 9.8 mg/kg in series [3]; 0.75 mg/kg in series [6]; 1 mg/kg in series [7]; 0.04 mg/kg in series [8]; 2.55 mg/kg in series [9]. This compound displayed an ED50 in series [10] of 0.86 mg/kg. The Ratio in [11] was 9.5.

Take `O=C(CCCN1CCC(O)(c2ccc(Cl)cc2)CC1)c1ccc(F)cc1` [HALOPERIDOL]: the ED50 in series [2] came to 0.1 mg/kg; in series [8] it was 0.04 mg/kg.
